In ChEMBL document CHEMBL5113469, “Synthesis and biological evaluation of a tumor-selective degrader of PARP1” (Bioorg Med Chem, 2022):
Active and inactive are the calls of the source. The calls are words filed in the database; no cut-off is given here.

What was measured:
MDA-MB-231 [1] = assay: Antiproliferative activity against human MDA-MB-231 cells assessed as cell growth inhibition incubated for 5 days by MTT assay; type: functional, cell-based; conditions: MDA-MB-231, 120 h
CAPAN-1 = assay: Antiproliferative activity against human CAPAN-1 cells assessed as cell growth inhibition incubated for 5 days by MTT assay; type: functional, cell-based; conditions: CAPAN-1, 120 h
MDA-MB-468 = assay: Antiproliferative activity against human MDA-MB-468 cells assessed as cell growth inhibition incubated for 5 days by MTT assay; type: functional, cell-based; conditions: MDA-MB-468, 120 h
MDA-MB-436 = assay: Antiproliferative activity against human MDA-MB-436 cells assessed as cell growth inhibition incubated for 5 days by MTT assay; type: functional, cell-based; conditions: MDA-MB-436, 120 h
[2] = target: T1, Protein cereblon/Poly [ADP-ribose] polymerase 1 (Homo sapiens, UniProt P09874+Q96SW2); assay: PROTAC activity at CRBN/PARP1 in human L02 cells assessed as induction of PARP1 degradation incubated for 24 hrs by western blot analysis; type: cell-based
Target sequence in this assay (P09874 whole entry): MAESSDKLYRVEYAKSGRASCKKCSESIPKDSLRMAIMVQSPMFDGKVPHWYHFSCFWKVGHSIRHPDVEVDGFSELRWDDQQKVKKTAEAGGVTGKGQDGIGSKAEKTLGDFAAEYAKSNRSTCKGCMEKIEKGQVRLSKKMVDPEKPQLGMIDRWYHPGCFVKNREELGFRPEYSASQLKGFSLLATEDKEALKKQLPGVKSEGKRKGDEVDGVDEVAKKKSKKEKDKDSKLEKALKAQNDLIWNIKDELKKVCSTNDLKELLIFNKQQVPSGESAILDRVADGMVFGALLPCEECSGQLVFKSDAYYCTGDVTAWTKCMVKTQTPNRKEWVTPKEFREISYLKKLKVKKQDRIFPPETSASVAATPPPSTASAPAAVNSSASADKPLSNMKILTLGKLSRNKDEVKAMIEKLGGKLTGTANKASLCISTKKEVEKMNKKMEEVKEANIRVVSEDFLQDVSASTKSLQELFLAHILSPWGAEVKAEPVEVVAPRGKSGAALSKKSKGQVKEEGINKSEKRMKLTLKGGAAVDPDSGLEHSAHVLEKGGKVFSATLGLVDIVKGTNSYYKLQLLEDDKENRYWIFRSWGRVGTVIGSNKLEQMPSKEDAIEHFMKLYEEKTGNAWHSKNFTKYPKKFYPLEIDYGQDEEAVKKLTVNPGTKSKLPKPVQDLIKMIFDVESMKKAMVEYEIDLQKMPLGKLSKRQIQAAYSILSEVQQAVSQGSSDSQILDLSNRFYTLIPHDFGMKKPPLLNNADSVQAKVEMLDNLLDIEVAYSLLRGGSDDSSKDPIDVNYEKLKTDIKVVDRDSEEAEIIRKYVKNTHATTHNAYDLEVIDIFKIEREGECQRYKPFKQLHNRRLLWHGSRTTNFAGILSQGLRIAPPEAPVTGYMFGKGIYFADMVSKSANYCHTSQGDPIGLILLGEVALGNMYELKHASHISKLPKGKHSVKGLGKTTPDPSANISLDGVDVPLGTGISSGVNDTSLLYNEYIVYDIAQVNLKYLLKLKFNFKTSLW
Target sequence in this assay (Q96SW2 whole entry): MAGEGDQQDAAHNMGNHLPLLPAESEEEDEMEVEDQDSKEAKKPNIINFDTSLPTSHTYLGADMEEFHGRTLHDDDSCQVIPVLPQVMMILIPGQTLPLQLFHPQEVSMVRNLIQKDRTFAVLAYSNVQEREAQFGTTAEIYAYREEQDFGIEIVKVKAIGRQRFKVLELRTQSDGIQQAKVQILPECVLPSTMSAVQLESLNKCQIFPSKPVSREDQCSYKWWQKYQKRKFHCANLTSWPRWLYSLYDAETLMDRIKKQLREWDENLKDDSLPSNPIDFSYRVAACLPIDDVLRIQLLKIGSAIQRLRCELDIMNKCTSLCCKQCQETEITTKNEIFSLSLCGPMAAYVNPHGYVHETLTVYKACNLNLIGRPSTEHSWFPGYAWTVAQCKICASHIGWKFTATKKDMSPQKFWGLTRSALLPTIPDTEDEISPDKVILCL

MDA-MB-231 [3] = assay: Induction of cell cycle arrest in human MDA-MB-231 cells assessed as accumulation at S phase at 0.625 uM incubated for 24 hrs by propidium iodide staining based flow cytometry analysis (reference value: 37.88 %); type: functional
MDA-MB-231 [4] = assay: Induction of cell cycle arrest in human MDA-MB-231 cells assessed as accumulation at S phase at 5 uM incubated for 24 hrs by propidium iodide staining based flow cytometry analysis (reference value: 37.88 %); type: functional
MDA-MB-231 [5] = assay: Induction of cell cycle arrest in human MDA-MB-231 cells assessed as accumulation at G2/M phase at 0.312 uM incubated for 24 hrs by propidium iodide staining based flow cytometry analysis (reference value: 27.14 %); type: functional
MDA-MB-231 [6] = assay: Induction of cell cycle arrest in human MDA-MB-231 cells assessed as accumulation at G0/G1 phase at 0.625 uM incubated for 24 hrs by propidium iodide staining based flow cytometry analysis (reference value: 32.62 %); type: functional
MDA-MB-231 [7] = assay: Induction of cell cycle arrest in human MDA-MB-231 cells assessed as accumulation at S phase at 1.25 uM incubated for 24 hrs by propidium iodide staining based flow cytometry analysis (reference value: 37.88 %); type: functional
MDA-MB-231 [8] = assay: Induction of cell cycle arrest in human MDA-MB-231 cells assessed as accumulation at G2/M phase at 1.25 uM incubated for 24 hrs by propidium iodide staining based flow cytometry analysis (reference value: 27.14 %); type: functional
MDA-MB-231 [9] = assay: Induction of cell cycle arrest in human MDA-MB-231 cells assessed as accumulation at G0/G1 phase at 1.25 uM incubated for 24 hrs by propidium iodide staining based flow cytometry analysis (reference value: 32.62 %); type: functional
MDA-MB-231 [10] = assay: Induction of cell cycle arrest in human MDA-MB-231 cells assessed as accumulation at G2/M phase at 2.5 uM incubated for 24 hrs by propidium iodide staining based flow cytometry analysis (reference value: 27.14 %); type: functional
MDA-MB-231 [11] = assay: Induction of cell cycle arrest in human MDA-MB-231 cells assessed as accumulation at G0/G1 phase at 2.5 uM incubated for 24 hrs by propidium iodide staining based flow cytometry analysis (reference value: 32.62 %); type: functional
MDA-MB-231 [12] = assay: Induction of cell cycle arrest in human MDA-MB-231 cells assessed as accumulation at G2/M phase at 5 uM incubated for 24 hrs by propidium iodide staining based flow cytometry analysis (reference value: 27.14 %); type: functional
MDA-MB-231 [13] = assay: Induction of cell cycle arrest in human MDA-MB-231 cells assessed as accumulation at G2/M phase at 0.625 uM incubated for 24 hrs by propidium iodide staining based flow cytometry analysis (reference value: 27.14 %); type: functional
MDA-MB-231 [14] = assay: Induction of cell cycle arrest in human MDA-MB-231 cells assessed as accumulation at S phase at 0.312 uM incubated for 24 hrs by propidium iodide staining based flow cytometry analysis (reference value: 37.88 %); type: functional
MDA-MB-231 [15] = assay: Induction of cell cycle arrest in human MDA-MB-231 cells assessed as accumulation at G0/G1 phase at 0.312 uM incubated for 24 hrs by propidium iodide staining based flow cytometry analysis (reference value: 32.62 %); type: functional
MDA-MB-231 [16] = assay: Induction of cell cycle arrest in human MDA-MB-231 cells assessed as accumulation at G0/G1 phase at 5 uM incubated for 24 hrs by propidium iodide staining based flow cytometry analysis (reference value: 32.62 %); type: functional
MDA-MB-231 [17] = assay: Induction of cell cycle arrest in human MDA-MB-231 cells assessed as accumulation at S phase at 2.5 uM incubated for 24 hrs by propidium iodide staining based flow cytometry analysis (reference value: 37.88 %); type: functional
[18] = target: T1, Protein cereblon/Poly [ADP-ribose] polymerase 1; assay: PROTAC activity at CRBN/PARP1 in human MDA-MB-231 cells assessed as induction of PARP1 degradation at 1 uM incubated for 24 hrs by western blot analysis; type: cell-based
Target sequence in this assay (P09874 2-1014 limits assumed): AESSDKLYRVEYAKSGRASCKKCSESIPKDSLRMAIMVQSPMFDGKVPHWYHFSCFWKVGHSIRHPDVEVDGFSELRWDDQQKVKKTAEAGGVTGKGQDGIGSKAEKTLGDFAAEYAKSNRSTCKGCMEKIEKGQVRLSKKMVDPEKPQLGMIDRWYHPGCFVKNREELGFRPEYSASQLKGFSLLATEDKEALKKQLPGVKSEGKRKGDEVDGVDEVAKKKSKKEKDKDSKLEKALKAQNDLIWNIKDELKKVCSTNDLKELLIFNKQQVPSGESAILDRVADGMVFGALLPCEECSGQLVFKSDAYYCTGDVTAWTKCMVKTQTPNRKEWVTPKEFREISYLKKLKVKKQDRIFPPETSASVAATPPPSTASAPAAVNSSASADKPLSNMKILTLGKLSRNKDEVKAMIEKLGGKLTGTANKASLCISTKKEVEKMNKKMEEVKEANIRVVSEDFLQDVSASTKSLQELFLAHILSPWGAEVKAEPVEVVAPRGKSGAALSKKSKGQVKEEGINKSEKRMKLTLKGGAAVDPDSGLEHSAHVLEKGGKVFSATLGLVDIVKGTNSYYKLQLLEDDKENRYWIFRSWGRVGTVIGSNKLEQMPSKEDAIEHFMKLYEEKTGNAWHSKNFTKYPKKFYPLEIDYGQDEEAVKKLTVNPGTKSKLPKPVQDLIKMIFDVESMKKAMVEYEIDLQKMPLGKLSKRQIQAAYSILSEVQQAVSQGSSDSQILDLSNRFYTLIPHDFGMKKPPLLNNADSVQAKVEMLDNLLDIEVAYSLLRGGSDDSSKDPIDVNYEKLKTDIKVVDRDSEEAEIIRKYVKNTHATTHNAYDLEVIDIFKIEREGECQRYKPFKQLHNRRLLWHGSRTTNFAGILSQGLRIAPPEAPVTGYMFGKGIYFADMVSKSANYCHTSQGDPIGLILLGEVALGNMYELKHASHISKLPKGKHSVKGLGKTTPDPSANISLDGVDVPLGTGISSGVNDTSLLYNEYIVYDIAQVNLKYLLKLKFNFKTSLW
Target sequence in this assay (Q96SW2 whole entry partner): as the sequence (Q96SW2 whole entry) above

`O=C1CCC(N2C(=O)c3cccc(NC(=O)CNCC(=O)N4CCN(C(=O)c5cc(Cc6n[nH]c(=O)c7ccccc67)ccc5F)CC4)c3C2=O)C(=O)N1` (stereo not given) was tested, and the IC50 (MDA-MB-231 [1]) was greater than 20 µM, the IC50 (CAPAN-1) was greater than 10 µM and the IC50 (MDA-MB-468) was greater than 20 µM. It also gave an IC50 (MDA-MB-436) greater than 10 µM.
`O=C(CCCCCCCCCCC(=O)N1CCN(C(=O)c2cc(Cc3n[nH]c(=O)c4ccccc34)ccc2F)CC1)NCCNc1cccc2c1C(=O)N(C1CCC(=O)NC1=O)C2=O` (stereo not given) gave a DC50 [2] of 0.00289 µM.
`O=C1CCC(N2C(=O)c3cccc(NC(=O)CNCCCCCC(=O)N4CCN(C(=O)c5cc(Cc6n[nH]c(=O)c7ccccc67)ccc5F)CC4)c3C2=O)C(=O)N1` (stereo not given) showed an IC50 (MDA-MB-231 [1]) greater than 20 µM, an IC50 (CAPAN-1) of 4.95 µM and an IC50 (MDA-MB-468) greater than 20 µM. It also gave an IC50 (MDA-MB-436) of 4.28 µM.
Work on `O=C1CCC(N2C(=O)c3cccc(NC(=O)CNCCCCC(=O)N4CCN(C(=O)c5cc(Cc6n[nH]c(=O)c7ccccc67)ccc5F)CC4)c3C2=O)C(=O)N1` (stereo not given) yielded an IC50 (MDA-MB-231 [1]) greater than 20 µM, an IC50 (CAPAN-1) of 6.53 µM and an IC50 (MDA-MB-468) greater than 20 µM. It also gave an IC50 (MDA-MB-436) of 5.82 µM.
For `O=C(c1cc(Cc2n[nH]c(=O)c3ccccc23)ccc1F)N1CCN(C(=O)C2CC2)CC1` [OLAPARIB], the Activity (MDA-MB-231 [3]) was 33.33%, the IC50 (CAPAN-1) was 0.053 µM and the Activity (MDA-MB-231 [4]) was 37.59%. The Activity (MDA-MB-231 [5]) was 26.17%, the Activity (MDA-MB-231 [6]) was 33.68% and the Activity (MDA-MB-231 [7]) was 33.8%. It also gave an Activity (MDA-MB-231 [8]) of 34.71%, an Activity (MDA-MB-231 [9]) of 29.71% and an Activity (MDA-MB-231 [10]) of 37.91%. For the same molecule, the IC50 (MDA-MB-468) was 4.19 µM, the Activity (MDA-MB-231 [11]) was 28.07% and the Activity (MDA-MB-231 [12]) was 39.58%. For the same molecule, the Activity (MDA-MB-231 [13]) was 31.86%, the Activity (MDA-MB-231 [14]) was 46.21% and the Activity (MDA-MB-231 [15]) was 35.88%. For the same molecule, the Activity (MDA-MB-231 [16]) was 23.6%, the Activity (MDA-MB-231 [17]) was 38.31% and the IC50 (MDA-MB-436) was 0.02 µM.
With `O=C1CCC(N2C(=O)c3cccc(NC(=O)CNCCCCCCCCCC(=O)N4CCN(C(=O)c5cc(Cc6n[nH]c(=O)c7ccccc67)ccc5F)CC4)c3C2=O)C(=O)N1` (stereo not given) the IC50 (MDA-MB-231 [1]) was 5.37 µM, the IC50 (CAPAN-1) was 0.22 µM and the IC50 (MDA-MB-468) was 4.35 µM. For the same molecule, the Activity [18] was “Active” and the IC50 (MDA-MB-436) was 0.13 µM.
Molecule `O=C1CCC(N2C(=O)c3cccc(NC(=O)CNCCCC(=O)N4CCN(C(=O)c5cc(Cc6n[nH]c(=O)c7ccccc67)ccc5F)CC4)c3C2=O)C(=O)N1` (stereo not given) has an IC50 (MDA-MB-231 [1]) greater than 20 µM, an IC50 (CAPAN-1) of 8.64 µM and an IC50 (MDA-MB-468) greater than 20 µM. It also gave an IC50 (MDA-MB-436) of 6.8 µM.
